≈ marks a conversion by molar mass, not a printed value. Where “and” joins values, the source holds several entries; their conditions need not be identical. Identical values can stand only once. Like-named read-outs stand apart in the source and are kept apart here.
Experiments:
Para-influenza-3 virus = experiment: organism not typed; type: cell-based; conditions: for EC50: Vero, read-out: EC50 Para-influenza-3 virus
Reovirus-1 = experiment: organism not typed; type: cell-based; conditions: for EC50: Vero, read-out: EC50 Reovirus-1
Sindbis virus = experiment: microbe, parasite or virus in culture; type: cell-based; conditions: Vero, read-out: EC50 Sindbis virus
Coxsackie virus B4 = experiment: microbe, parasite or virus in culture; type: cell-based; conditions: Enterovirus B, B4, Vero, read-out: EC50 Coxsackie virus B4
Punta Toro virus = experiment: microbe, parasite or virus in culture; type: cell-based; conditions: Vero, read-out: EC50 Punta Toro virus
Yellow Fever virus = experiment: microbe, parasite or virus in culture; type: cell-based; conditions: for EC50: Yellow fever virus, Vero, read-out: EC50 Yellow Fever virus
in vitro = conditions: human; for viability: 48 h
HIV-1 (strain NL4.3) = experiment: microbe, parasite or virus in culture; type: cell-based
[1] = Cytotoxicity % Viability Exp - 1, 10 μg/mL
[2] = Cytotoxicity % Viability Exp - 1, 100 μg/mL

| Molecule | EC50 (Para-influenza-3 virus) | EC50 (Reovirus-1) | EC50 (Sindbis virus) | EC50 (Coxsackie virus B4) | EC50 (Punta Toro virus) | SI (Yellow Fever Virus), ratio of MCC to EC50 (Yellow Fever virus) | EC50 (Yellow Fever virus) | Minimum cytotoxic concentration (MCC) (Vero cells; African green monkey) [µg/mL] | viability (in vitro; [1]) [%] | viability (in vitro; [2]) [%] | EC50 Para-influenza-3 virus (Para-influenza-3 virus) [µg/mL] | EC50 Reovirus-1 (Reovirus-1) [µg/mL] | Minimum cytotoxic concentration (MCC) (Vero cells) | Minimum cytotoxic concentration (MCC), molar value in parentheses (Vero cells) | SI (Selectivity index ratio CC50/IC50) (HIV-1 (strain NL4.3)) | IC50 (HIV-1 (strain NL4.3); Human immunodeficiency virus 1, TZM-bl, read-out: IC50 (HIV infection)) [µg/mL] | CC50 (in vitro) | viability (in vitro; Cytotoxicity % Viability Exp - 2, 1 μg/mL) [%] | viability (in vitro; Cytotoxicity % Viability Exp - 2, 5 μg/mL) [%] | viability (in vitro; Cytotoxicity % Viability Exp - 2, 10 μg/mL) [%] |
| --- | --- | --- | --- | --- | --- | --- | --- | --- | --- | --- | --- | --- | --- | --- | --- | --- | --- | --- | --- | --- |
| O=[N+]([O-])c1cc2nc(Cl)n(CCO)c2cc1[N+](=O)[O-] [Compound 4a, 2-(2-Chloro-5,6-dinitro-1H-benzimidazol-1-yl)ethan-1-ol] | > 100 µg/mL | > 100 µg/mL | > 100 µg/mL | > 100 µg/mL | > 100 µg/mL | 1 | > 100 µg/mL | >100 | 99.9 | 11.2 |  |  |  |  |  |  |  |  |  |  |
| OCCCn1c(Cl)nc2cc(Br)c(Br)cc21 [Compound 3b, 3-(5,6-Dibromo-2-chloro-1H-benzimidazol-1-yl)propan-1-ol] | > 100 µg/mL | > 100 µg/mL | > 100 µg/mL | > 100 µg/mL | > 100 µg/mL | 1 | > 100 µg/mL | >100 | 102 | 79.8 |  |  |  |  |  |  |  |  |  |  |
| OCCn1c(Cl)nc2ccccc21 [Compound 1a, 2-(2-Chloro-1H-benzimidazol-1-yl)ethan-1-ol] | > 100 µg/mL | > 100 µg/mL | > 100 µg/mL | > 100 µg/mL | > 100 µg/mL | 1 | > 100 µg/mL | >100 | 90.1 | 53.6 |  |  |  |  |  |  |  |  |  |  |
| O=[N+]([O-])c1ccc2c(c1)nc(Cl)n2CCCO [Compound 2b, 3-(2-Chloro-5-nitro-1H-benzimidazol-1-yl)propan-1-ol] | > 100 µg/mL | > 100 µg/mL | > 100 µg/mL | > 100 µg/mL | > 100 µg/mL |  |  |  | 91.2 | 69.1 |  |  |  |  |  |  |  |  |  |  |
| COc1c(C)c2c(c(O)c1C/C=C(\C)CCC(=O)O)C(=O)OC2 [Mycophenolic acid, reference compound] | 0.6 µM | 6 µM | 8.9 µM | > 100 µM | 14 µM | 125 | 0.8 µM |  |  |  |  |  |  |  |  |  |  |  |  |  |
| NC(=O)c1ncn([C@@H]2O[C@H](CO)[C@@H](O)[C@H]2O)n1 [Ribavirin, reference compound] | 250 µM | > 250 µM | > 250 µM | > 250 µM | > 250 µM | 1 | > 250 µM |  |  |  |  |  |  |  |  |  |  |  |  |  |
| OCCCn1c(Cl)nc2ccccc21 [Compound 1b, 3-(2-Chloro-1H-benzimidazol-1-yl)propan-1-ol] | > 100 µg/mL | > 100 µg/mL | > 100 µg/mL | > 100 µg/mL | > 100 µg/mL | 1 | > 100 µg/mL | >100 | 92.6 | 58.6 |  |  |  |  |  |  |  |  |  |  |
| O=[N+]([O-])c1cc2nc(Cl)n(CCCO)c2cc1[N+](=O)[O-] [Compound 4b, 3-(2-Chloro-5,6-dinitro-1H-benzimidazol-1-yl)propan-1-ol] | > 100 µg/mL | > 100 µg/mL | > 100 µg/mL | > 100 µg/mL | > 100 µg/mL | 1 | > 100 µg/mL | ≥100 | 92.1 | 90.9 |  |  |  |  |  |  |  |  |  |  |
| O=[N+]([O-])c1ccc2c(c1)nc(Cl)n2CCO [Compound 2a, 2-(2-Chloro-5-nitro-1H-benzimidazol-1-yl)ethan-1-ol] | > 100 µg/mL | > 100 µg/mL | > 100 µg/mL | > 100 µg/mL | > 100 µg/mL | 1 | > 100 µg/mL | ≥100 | 104 | 40.4 |  |  |  |  |  |  |  |  |  |  |
| dextran sulfate [DS - 10.000, reference compound] |  |  |  |  |  | 125 |  |  |  |  | >100 | >100 | >100 (0.01μM) μg/mL | >100 (0.01μM) |  |  |  |  |  |  |
| OCCn1c(Cl)nc2cc(Br)c(Br)cc21 [Compound 3a, 2-(5,6-Dibromo-2-chloro-1H-benzimidazol-1-yl)ethan-1-ol] | > 100 µg/mL | > 100 µg/mL | > 100 µg/mL | > 100 µg/mL | > 100 µg/mL | 1 | > 100 µg/mL | 100 | 18.5 | 0.96 |  |  |  |  | 2.73 | 1.37 (≈ 3.87 µM) | 3.74 µg/mL and 10.5 µM | 83.7 | 49 | 13.7 |
| Cc1ccnc2c1NC(=O)c1cccnc1N2C1CC1 [Nevirapine, reference compound] |  |  |  |  |  |  |  |  |  |  |  |  |  |  | >200 |  |  |  |  |  |

Reference: PMC7537607 (Computational Biology and Chemistry, 2020)
